Assay results published in patent US9410148B2, “Method for constructing libraries of non-standard peptide compounds comprising N-methyl amino acids and other special (non-standard) amino acids and method for searching and identifying active species” (THE UNIVERSITY OF TOKYO, priority 2010, dated 2016).
Bridge positions count the residues as written; N and C are the ends. Square brackets hold non-standard residues; d marks the D form. Peptide text beside a SMILES is read from it. NMeF = CN[C@@H](Cc1ccccc1)C(=O)O; NMeS = CN[C@@H](CO)C(=O)O; Sar = CNCC(=O)O

Legend:
E6AP-HECT [1] = target: T1, E6AP-HECT (Homo sapiens, UniProt Q05086); assay: Determination of binding constant using SPR (BIACORE T100, streptavidin sensor chip)
T1 construct: The C terminal domain of E6AP, consisting of about 350 amino acid residues, is called the HECT
T1 sequence (Q05086 495-852 isoform Q05086-2 limits assumed): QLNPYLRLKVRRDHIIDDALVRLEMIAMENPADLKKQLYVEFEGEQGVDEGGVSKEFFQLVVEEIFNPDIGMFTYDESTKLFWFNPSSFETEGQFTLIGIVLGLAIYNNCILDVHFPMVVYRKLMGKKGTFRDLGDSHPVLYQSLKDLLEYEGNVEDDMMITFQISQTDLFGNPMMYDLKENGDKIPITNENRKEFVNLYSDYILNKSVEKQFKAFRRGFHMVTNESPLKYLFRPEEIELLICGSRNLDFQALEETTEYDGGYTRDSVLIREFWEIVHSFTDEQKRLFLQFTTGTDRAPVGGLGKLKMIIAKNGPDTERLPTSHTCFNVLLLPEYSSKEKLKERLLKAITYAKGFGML
Method: The binding constant of MCP11 to E6AP-HECT was analyzed by a surface plasmon resonance using BIACORE T100.
A streptavidin sensor chip (SA chip certified) was used as a sensor chip, an Avi-His-GB1-E6AP-HECT was used as a ligand, and MCP11 was used as an analyte. After E6AP-HECT was fixed to a sensor chip, the KD of MCP11 was 0.5 nM.

E6AP-HECT [2] = target: T2, E6AP-HECT (Homo sapiens, UniProt Q05086); assay: KD / nM
T2 construct: The C terminal domain of E6AP, consisting of about 350 amino acid residues, is called the HECT
Text: Table printed on a drawing sheet, Figure 5-4
Head of the field: KD / nM
Biotinylated E6AP-HECT was fixed to the streptavidin chip to analyze affinity using the peptides. (Example 7)
First copying reader's note: Brackets drawn under MCP11 and CP11 link the N-terminal CH2CO to the second Cys (cyclic peptides); the raised Me marks and underlining denote N-methyl residues.
Where the first naming reader finds the target: description_of_the_figure: Biotinylated E6AP-HECT was fixed to the streptavidin chip to analyze affinity using the peptides.
T2 sequence (Q05086 whole entry, looked up, the tested form may be a part): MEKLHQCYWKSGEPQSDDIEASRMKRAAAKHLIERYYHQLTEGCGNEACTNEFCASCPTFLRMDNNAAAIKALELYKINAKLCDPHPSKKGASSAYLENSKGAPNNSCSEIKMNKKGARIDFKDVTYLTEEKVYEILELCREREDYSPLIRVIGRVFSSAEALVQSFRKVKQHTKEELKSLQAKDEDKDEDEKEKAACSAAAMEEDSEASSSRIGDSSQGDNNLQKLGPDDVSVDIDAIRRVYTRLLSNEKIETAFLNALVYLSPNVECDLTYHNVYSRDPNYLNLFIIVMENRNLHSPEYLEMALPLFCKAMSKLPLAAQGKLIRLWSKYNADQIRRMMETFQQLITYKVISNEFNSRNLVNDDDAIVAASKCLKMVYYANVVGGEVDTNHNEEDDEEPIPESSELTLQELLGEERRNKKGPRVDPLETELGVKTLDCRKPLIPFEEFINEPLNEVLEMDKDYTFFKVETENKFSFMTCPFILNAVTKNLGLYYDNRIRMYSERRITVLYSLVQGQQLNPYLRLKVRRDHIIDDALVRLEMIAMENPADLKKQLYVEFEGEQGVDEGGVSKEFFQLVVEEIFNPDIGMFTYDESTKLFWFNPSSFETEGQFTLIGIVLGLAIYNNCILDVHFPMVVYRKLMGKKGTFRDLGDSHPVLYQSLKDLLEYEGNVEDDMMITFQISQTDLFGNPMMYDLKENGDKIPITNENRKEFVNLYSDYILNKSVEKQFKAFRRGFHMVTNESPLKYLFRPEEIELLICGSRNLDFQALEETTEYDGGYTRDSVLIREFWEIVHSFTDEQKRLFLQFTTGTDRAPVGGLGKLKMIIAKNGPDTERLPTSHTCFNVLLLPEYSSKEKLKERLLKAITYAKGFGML

Compound CC(C)[C@@H]1NC(=O)[C@H](CC(=O)O)NC(=O)[C@H](CS)NC(=O)[C@@H](Cc2c[nH]c3ccccc23)NC(=O)CSC[C@@H](C(=O)NCC(N)=O)NC(=O)[C@@H]2CCCN2C(=O)[C@H](Cc2ccccc2)N(C)C(=O)[C@H](Cc2ccc(O)cc2)NC(=O)CN(C)C(=O)[C@H](Cc2ccccc2)N(C)C(=O)[C@H](CCCNC(=N)N)NC(=O)CNC(=O)[C@H](CO)N(C)C1=O [MCP11, Cyclo(-Ac-^DWCDV^MeSGR^MeF^MeGY^MeFPC)G-OH] ({CH2CO}-[dW]CDV[NMeS]GR[NMeF][Sar]Y[NMeF]PCG-NH2; thioether N-13) has a Kd (E6AP-HECT [1]; surface plasmon resonance, Avi-His-GB1-E6AP-HECT fixed as ligand, peptide as analyte) of 0.0005 µM.

CC(=O)N[C@H](Cc1c[nH]c2ccccc12)C(=O)N[C@@H](CS)C(=O)N[C@@H](CC(=O)O)C(=O)N[C@H](C(=O)N(C)[C@@H](CO)C(=O)NCC(=O)N[C@@H](CCCNC(=N)N)C(=O)N(C)[C@@H](Cc1ccccc1)C(=O)N(C)CC(=O)N[C@@H](Cc1ccc(O)cc1)C(=O)N(C)[C@@H](Cc1ccccc1)C(=O)N1CCC[C@H]1C(=O)N[C@@H](CS)C(=O)NCC(N)=O)C(C)C [MLP11:, CH3CO-wCDV^MeSGR^MeF^MeGY^MeFPCG-NH2] (Ac-[dW]CDV[NMeS]GR[NMeF][Sar]Y[NMeF]PCG-NH2) was tested, and the Kd (E6AP-HECT [2]) was 0.1 to 1 µM.

For CC(=O)N[C@H](Cc1c[nH]c2ccccc12)C(=O)N[C@@H](CS)C(=O)N[C@@H](CC(=O)O)C(=O)N[C@H](C(=O)N(C)[C@@H](CO)C(=O)NCC(=O)N[C@@H](CCCNC(=N)N)C(=O)N(C)[C@@H](Cc1ccccc1)C(=O)N(C)CC(=O)N[C@@H](Cc1ccc(O)cc1)C(=O)N(C)[C@@H](Cc1ccccc1)C(=O)N1CCC[C@H]1C(=O)N[C@@H](CS)C(=O)NCC(N)=O)C(C)C [MLP11] (Ac-[dW]CDV[NMeS]GR[NMeF][Sar]Y[NMeF]PCG-NH2), the “difference in the binding ability” value (E6AP-HECT [1]; KD of MLP11 relative to MCP11) was no less than 200 times.
